Source: US6867320B2, “Substituted phenylalkanoic acid derivatives and use thereof” (Asahi Kasei Pharma Corporation, priority 2002, dated 2005)

Experiments:
[1] = test system: LTB4 production from IgE-stimulated RBL-2H3 cells; assay: Suppressing action on LTB4 production from IgE-stimulated RBL-2H3 cells; type: cell-based; settings: Rattus norvegicus, 10 min, IgE/DNP-BSA stimulated RBL-2H3 cells, read-out: LTB4 production suppression ratio
Source text: (§1) 2. Suppressing Action on PGD2 and LTB4 Production from IgE-Stimulated RBL-2H3 Cells
(§2) Suppressing action on PGD2 and LTB4 production caused by IgE as an allergic stimulant was investigated by the following method. Cells of RBL-2H3, which is a rat mastocytoma cell line (purchased from ATCC), were suspended in DEMEM medium (GIBCO) containing 10% fetal bovine serum (BioFluid), inoculated to each well of 48-well culture plate at a density of 2×10^4 cells/well and cultured overnight. Then, IgE antiserum directed to dinitrophenylated BSA (henceforth DNP-BSA) was further added to each well, and the cells were cultured for 30 minutes. Then, the medium was changed to DEMEM medium containing 0.5% fetal bovine serum, a test compound was added with each well, and DNP-BSA was further added at a final concentration of 100 ng/ml as a stimulant. Ten minutes after the stimulant was added, the culture supernatant was collected, and the PGD2 concentration and LTB4 concentration in the culture supernatant were measured by using EIA kit (CAYMAN). By using a well which was not added with the stimulant as a negative control and a well which was added only with the stimulant as a positive control, suppressing ratios on mediator production were calculated from the production amounts of the mediators in the well added with the test compound using the following equation. PGD2 or LTB4 production suppression ratio=[1−(C−B)/(A−B)]×100 • A: PGD2 or LTB4 production amount of positive control • B: PGD2 or LTB4 production amount of negative control • C: PGD2 or LTB4 production amount in well added with test compound
(§3) Further, as control compounds for comparison, reference compound (1), 3-(2-cyclohexylmethyloxy-1,1′-biphenyl-5-yl)propionic acid described in WO99/19291, reference compounds (2) and (3), [2-(5,6,7,8-tetrahydro-5,5,8,8-tetramethyl-2-naphthalenyl)methyloxy-1,1′-biphenyl-5-yl]carboxylic acid [reference compound (2)] and 3-[3′-carboxy-2-(5,6,7,8-tetrahydro-5,5,8,8-tetramethyl-2naphthalenyl)methyloxy-1,1′-biphenyl-6-yl]propionic acid [reference compound (3)] described in U.S. Pat. No. 5,391,817 and Japanese Patent Unexamined Publication (Kokai) No. 7-22399, respectively, were used, and activities thereof were similarly measured.

[2] = test system: zymosan-stimulated footpad edema; assay: Mouse zymosan-stimulated footpad edema reaction; type: in vivo; settings: ICR female mice, oral 0.1 to 500 mg/kg, compared with positive control group
Protocol: 3. Suppressing Effect on Mouse Zymosan-stimulated Footpad Edema Reaction A suppressing effect on footpad edema caused by zymosan as an inflammatory stimulant was studied by the following method. Groups of ICR female mice (6- to 7-week old) each consisting of eight mice were used for the test. A test compound was suspended or dissolved in purified water containing 0.5% methylcellulose and orally administered to the test animals at 0.1 to 500 mg/0.2 ml/kg. To the control group, purified water containing 0.5% methylcellulose was administered in a similar manner, which was not added with a test compound. One hour after the administration of the test compound, 0.02 ml of a suspension of zymosan suspended in physiological saline (Otsuka Pharmaceutical) at 1 mg/ml was subcutaneously administered to right hind leg footpad of each mouse. One and two hours after the administration of the zymosan suspension, volume of the right hind leg footpad was measured by using an apparatus for measuring a volume of mouse hind leg footpad edema (Unicom). A difference of the volume of footpad measured above and the footpad volume before the administration of the test compound measured beforehand was regarded as a volume of the edema. For the volume of the edema at 1 hour or 2 hours after the zymosan administration, a graph was prepared by indicating time in abscissa and the edema volume in ordinate, and an edema volume AUC (area under the curve) was obtained up to 2 hours by calculation using the following equation. Edema volume AUC (1·hour)=1/2×1×A+1×(A+B)/2 • A: Edema volume 1 hour after zymosan administration • B: Edema volume 2 hour after zymosan administration A suppression ratio on edema of test compound was obtained by calculation using the following equation. Edema suppression ratio (%)=[1−B/A]×100 • A: Edema volume AUC of positive control • B: Edema volume AUC of test compound administered group (2) Measurement Results

[3] = test system: PGE2 production from IL-1β-stimulated MG-63 cells; assay: Suppressing action on PGE2 production from IL-1β-stimulated MG-63 cells; type: cell-based; settings: Homo sapiens, IL-1β 1 ng/ml, 18 hours, read-out: PGE2 production suppression ratio
Summary of the method: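 Human osteosarcoma MG-63 cells (2×10^4/well) switched to 0.5% FBS medium, treated with compound, then stimulated with IL-1β at 1 ng/ml final for 18 h. Supernatant PGE2 measured by EIA; suppression ratio calculated against stimulated and unstimulated wells.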

[4] = test system: PGD2 production from IgE-stimulated RBL-2H3 cells; assay: Suppressing action on PGD2 production from IgE-stimulated RBL-2H3 cells; type: cell-based; settings: Rattus norvegicus, 10 min, IgE/DNP-BSA stimulated RBL-2H3 cells, read-out: PGD2 production suppression ratio
Source text: as §1, §2, §3

SMILES	inhibition at 0.4 µM [1]	suppression of footpad edema caused by zymosan [2]	inhibition at 0.4 µM [3]	inhibition at 0.4 µM [4]
O=C(O)CCc1ccc(OCC2CCCC2)c(-c2ccc3cc(O)ccc3c2)c1 [Compound 004, 3-[4-cyclopentylmethyloxy-3-(6-hydroxynaphthalen-2-yl)phenyl]propionic acid]	≥ 50%	suppressed footpad edema	≥ 50%	≥ 50%
CNc1ccc2cc(-c3cc(CCC(=O)O)ccc3OCC3CCCC3)ccc2c1 [Compound 016, 3-{4-cyclopentylmethyloxy-3-[6-(N-methylamino)naphthalen-2-yl]phenyl}propionic acid]	≥ 50%	–	≥ 50%	≥ 50%
O=C(O)CCc1ccc(OCc2cccc(F)c2)c(-c2ccc3ccccc3c2)c1 [Compound 035, 3-[4-(3-fluorophenylmethyloxy)-3-(naphthalen-2-yl)phenyl]propionic acid]	≥ 50%	–	–	≥ 50%
O=C(O)CCc1ccc(OC2CCCCC2)c(-c2ccc3ccccc3c2)c1 [Compound 045, 3-[4-cyclohexyloxy-3-(naphthalen-2-yl)phenyl]propionic acid]	≥ 50%	–	≥ 50%	≥ 50%
O=C(O)CCc1ccc(OCC2CCCC2)c(-c2ccc3cc(NCCO)ccc3c2)c1 [Compound 075, 3-{4-cyclopentylmethyloxy-3-[6-(2-hydroxyethylamino)naphthalen-2-yl]phenyl}propionic acid]	≥ 50%	–	≥ 50%	≥ 50%
O=C(O)CCc1ccc(OCC2CCCC2)c(-c2ccc3cc(NC(=O)c4ccco4)ccc3c2)c1 [Compound 081, 3-(4-cyclopentylmethyloxy-3-{6-[(furan-2-carbonyl)amino]naphthalen-2-yl}phenyl)propionic acid]	≥ 50%	–	≥ 50%	≥ 50%
O=C(O)CCc1ccc(OCc2ccc(Cl)cc2Cl)c(-c2ccc3[nH]ccc3c2)c1 [Compound 162, 3-[4-(2,4-dichlorophenylmethyloxy)-3-(1H-indol-5-yl)phenyl]propionic acid]	≥ 50%	–	≥ 50%	≥ 50%
CCCCOc1ccc(COc2ccc(CCC(=O)OC)cc2-c2ccc3[nH]ccc3c2)cc1 [Compound 185, methyl 3-{4-[4-(butyloxy)phenylmethyloxy]-3-(1H-indol-5-yl)-phenyl}propionate]	≥ 50%	suppressed footpad edema	–	≥ 50%
O=C(O)CCc1ccc(OCCc2cccc(Cl)c2)c(-c2ccc3[nH]ccc3c2)c1 [Compound 211, 3-{4-[2-(3-chlorophenyl)ethyloxy]-3-(1H-indol-5-yl)phenyl}propionic acid]	≥ 50%	–	≥ 50%	≥ 50%
CCn1ccc2cc(-c3cc(CCC(=O)O)ccc3OCc3ccccc3Cl)ccc21 [Compound 250, 3-[4-(2-chlorophenylmethyloxy)-3-(1-ethyl-1H-indol-5-yl)phenyl]propionic acid]	≥ 50%	–	≥ 50%	≥ 50%
Nc1nc2ccc(-c3cc(CCC(=O)O)ccc3OCC3CCCC3)cc2s1 [Compound 287, 3-[3-(2-aminobenzothiazol-6-yl)-4-cyclopentylmethyloxyphenyl]propionic acid]	≥ 50%	–	≥ 50%	≥ 50%
O=C(O)CCc1cc(F)c(OC2CCCC2)c(-c2ccc3[nH]ncc3c2)c1 [Compound 481, 3-[4-cyclopentyloxy-3-fluoro-5-(1H-indazol-5-yl)phenyl]propionic acid]	≥ 50%	–	≥ 50%	≥ 50%
Cn1ncc2cc(-c3cc(CCC(=O)O)cc(F)c3OC3CCCC3)ccc21 [Compound 483, 3-[4-cyclopentyloxy-3-fluoro-5-(1-methyl-1H-indazol-5-yl)phenyl]propionic acid]	≥ 50%	–	≥ 50%	≥ 50%
Nc1cc(CCC(=O)O)cc(-c2ccc3[nH]ncc3c2)c1OC1Cc2ccccc2C1 [Compound 486, 3-[3-amino-4-(indan-2-yloxy)-5-(1H-indazol-5-yl)phenyl]propionic acid]	≥ 50%	–	≥ 50%	≥ 50%
CCn1ncc2cc(-c3cc(CCC(=O)O)cc(N)c3OC3Cc4ccccc4C3)ccc21 [Compound 489, 3-[3-amino-5-(1-ethyl-1H-indazol-5-yl)-4-(indan-2-yloxy)phenyl]propionic acid]	≥ 50%	–	≥ 50%	≥ 50%
Cn1ncc2cc(-c3cc(CCC(=O)O)cc(O)c3OC3Cc4ccccc4C3)ccc21 [Compound 569, 3-[4-(indan-2-yloxy)-3-hydroxy-5-(1-methyl-1H-indazol-5-yl)phenyl]propionic acid]	≥ 50%	–	≥ 50%	≥ 50%
Cc1cc(CCC(=O)O)cc(-c2ccc3c(cnn3C)c2)c1OC1CCCC1 [Compound 572, 3-[4-cyclopentyloxy-3-methyl-5-(1-methyl-1H-indazol-5-yl)phenyl]propionic acid]	≥ 50%	–	≥ 50%	≥ 50%
CN(C)c1cc(CCC(=O)O)cc(-c2ccc3c(cnn3C)c2)c1OC1Cc2ccccc2C1 [Compound 586, 3-[4-(indan-2-yloxy)-3-(N,N-dimethylamino)-5-(1-methyl-1H-indazol-5-yl)phenyl]propionic acid]	≥ 50%	–	≥ 50%	≥ 50%
O=C(O)CCc1ccc(OCC2CCCCC2)c(-c2ccccc2)c1 [reference compound (1), 3-(2-cyclohexylmethyloxy-1,1′-biphenyl-5-yl)propionic acid, reference compound]	-5.9%	–	–	-12.9%
CC1(C)CCC(C)(C)c2cc(COc3ccc(C(=O)O)cc3-c3ccccc3)ccc21 [reference compound (2), [2-(5,6,7,8-tetrahydro-5,5,8,8-tetramethyl-2-naphthalenyl)methyloxy-1,1′-biphenyl-5-yl]carboxylic acid, reference compound]	-15.3%	–	–	-17.6%
CC1(C)CCC(C)(C)c2cc(COc3cccc(CCC(=O)O)c3-c3cccc(C(=O)O)c3)ccc21 [reference compound (3), 3-[3′-carboxy-2-(5,6,7,8-tetrahydro-5,5,8,8-tetramethyl-2naphthalenyl)methyloxy-1,1′-biphenyl-6-yl]propionic acid, reference compound]	-6.3%	–	–	2.1%
